Records with an inconclusive call do not appear.
System: S. cerevisiae PHO84-LacZ reporter, HDAC inhibition
Assay: HDAC inhibitors via yeast reporter, S. cerevisiae, PHO84-LacZ (AID 1582)

Compound	EC50 [µM]
CN(Cc1cnc2nc(N)nc(N)c2n1)c1ccc(C(=O)N[C@@H](CCC(=O)O)C(=O)O)cc1	78
c1ccc2[nH]c(-c3cscn3)nc2c1	148
CCC(C)[C@H]1O[C@]2(C=C[C@@H]1C)C[C@@H]1C[C@@H](C/C=C(\C)[C@@H](OC3C[C@H](OC)C(O[C@H]4C[C@H](OC)[C@@H](O)[C@H](C)O4)[C@H](C)O3)[C@@H](C)/C=C/C=C3\CO[C@@H]4[C@H](O)C(C)=C[C@@H](C(=O)O1)[C@]34O)O2 (some centres not stated)	66
N#Cc1ccc2c(c1)N(CCCN1CCC(O)CC1)c1ccccc1S2	148
NCCCCN	125
CC(C(=O)O)c1ccc(N2Cc3ccccc3C2=O)cc1 (configuration not stated)	50
COc1cc(C)c2c(=O)cc(-c3ccccc3)oc2c1	60
